# Assay results from patent US20240316223A1, “Oxidative Cyclization Reagents for Chemoselective Tryptophan Bioconjugation” (The Regents of the University of California, priority 2021, published 2024).
# Peptide text beside a SMILES is read from it. * marks the point of attachment. Cbz = O=C(OCc1ccccc1)*
# Assays:
# HeLa cells = test: Unfolding stress detection in living cells (desthiobiotin oxaziridine labeling, Western blot against biotin); type: cell-based; settings: HeLa cells treated 8 hours, lysate labeled with desthiobiotin oxaziridine (250 μM)
# Excerpt: In another application, we used Trp-CLiC as a general method to probe stress-induced protein unfolding. Indeed, under various environmental stresses, folded proteins will expose more hydrophobic residues as they unfold, and accumulation and aggregation of unfolded proteins is regarded as a signal of loss of proteostasis (34-37). Owing to its sterically demanding and hydrophobic properties, tryptophan residues are more likely to be buried in protein cores. We reasoned that this oxidative cyclization method could enable monitoring of increases in solvent accessibility of buried tryptophan residues during stress-induced protein unfolding. To test this hypothesis, we labeled lysozyme as a model protein in the presence of varying concentrations of guanidinium chloride (GdmCl) as a denaturant. […] We then used Trp-CLiC to monitor stress-induced protein unfolding in whole cell proteomes. HeLa cells were treated with the proteasome inhibitor MG-132, the ER stress inducer Tunicamycin to trigger unfolded protein stress responses, or vehicle control, then lysed and labeled with N-sulfonyl oxaziridine linked to desthiobiotin.
# HeLa cells were treated with MG-132 (5 μg/ml) or Tunicamycin (5 μM) for 8 hours. Then cells were harvested and lysed in PBS buffer (1% Triton, with protease inhibitors). […] The labeling results were detected by Western blot analysis against biotin.
# [1] = Selectivity and reactivity of Ac-Trp-OMe with N-sulfonyl oxaziridines (LC-MS); settings: for selectivity for the indole cycloadduct product: library screen with Ac-Trp-OMe
# Method: Initial reactivity studies with the N-sulfonyl oxaziridine Ox-W1 and N-acetyl-L-tryptophan methyl ester (Ac-Trp-OMe) were then performed in PBS/organic solvent mixture for 10 min at room temperature and subjected to liquid chromatography-mass spectrometry (LC-MS) analysis. Tryptophan reacted with a ˜50% conversion. Two major products were observed: the desired indole cycloadduct and hydroxyl tryptophan. The cycloadduct was generated with 28% yield, consistent with simple indoles that can react with such oxaziridines in organic solution (28). […] We then synthesized and screened a library of 20 different oxaziridines for Trp-CLiC chemistry; Ox-W10, Ox-W17, and Ox-W19 emerged as the top lead candidates with improved ˜90% selectivity and high reactivity for the indole cycloadduct product, with a measured reaction rate of 24.9±1.3M^−1 s^−1 that is on par with click chemistry reactions (29-31).
# A stock solution of Ac-Trp-OMe (100 mM) in MeOH was mixed with oxaziridine (100 mM) in MeOH (v/v ratio=1:1.2), followed by the immediate addition of PBS (1 volume equiv. to make 1:1 PBS/MeOH). For some oxaziridines with low solubility, the reaction was performed in PBS/MeOH/MeCN (1:1:1) co-solvent. […] It is important the initial stock solutions of Ac-Trp-OMe and oxaziridine are fully homogeneous prior to mixing.
# For LC-MS analysis, solvent A was water and solvent B was methanol. The linear gradient was 40-100% B in 6.5 min and 100% B for 1.5 min.
# [2] = Reaction of oxaziridine with methionine
# [3] = Kinetics of the Trp-CLiC reaction (absorbance at 280 nm, UV-Vis); settings: PBS buffer, 25° C.
# Method: For kinetics study of the Trp-CLiC reaction, the absorbance at 280 nm was time-dependently monitored by UV-Vis upon adding Ox-W18 (50 μM) into different concentrations of Ac-Trp-OMe (500 μM, 550 μM and 600 μM) in PBS buffer at 25° C. Then the second-order reaction rate constant could be obtained.
# IL8 = target: T1, IL8 (Homo sapiens, UniProt P10145); test: Protein labelling with N-sulfonyl oxaziridine: IL8 (LC-MS/MS); settings: native vs denaturant-treated IL8
# T1 sequence (P10145 21-99): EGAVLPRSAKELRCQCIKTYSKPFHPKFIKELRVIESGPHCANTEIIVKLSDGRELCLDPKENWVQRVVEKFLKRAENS
# Method: We then went on to label the model protein IL8, which has one partially buried tryptophan site.
# Proteins were dissolved in Tris (50 mM, pH 8.0) buffer. Ox-W18 (100 mM stock in DMF) was added to 30 μL protein solution (50 μM) and the final concentration was 300 μM. The reactions were performed for 10 min at room temperature and then quenched by addition of excess Ac-Met-OMe solution. For protein labelling under denaturing condition, the protein solution was treated with 0.5% SDS and then boiled for 5 min at 95° C. before Ox-W18 addition. For competition assay, free Ac-Trp-OMe (2 mM) was added beforehand. […] After tryptophan labelling with Ox-W18, the proteins were desalted with Zeba™ Spin Desalting Columns (7K MWCO, 0.5 mL) before subsequent Q-TOF analysis and UV-Vis analysis or further click reaction. In-gel fluorescence imaging was also applied to test the tryptophan labelling efficiency. For the copper-mediated alkyne-azide cyclization reaction of fluorescence dye, 100 μM CuSO4, 100 μM TBTA, 100 μM azide-dye and 2 mM sodium ascorbate was added to Ox-W18-labeled proteins. […]
# (§2) Trypsin digested peptides were analyzed on a Thermo Scientific Q Exactive™ Plus Hybrid Quadrupole-Orbitrap™ Mass Spectrometer coupled with an Aligent 1260 Infinite LC system. […]
# For protein ID and modification identification, all MS/MS raw files were analyzed using pFind platform. […]
# GLP-1 = GLP-1 (Homo sapiens, UniProt P01275); test: Oxaziridine screening on peptides: GLP-1 (Q-TOF); type: biochemical; settings: GLP-1 (50 μM), oxaziridine (300 μM)
# Method: Peptides were dissolved in 5% DMSO solution. […] The labeled peptides were subjected to Q-TOF analysis with a Proswift RP-4H (monolithic phenyl, 1.0 mm×50 mm, Dionex) column. The Solvent A was MilliQ water with 0.1% (v/v) formic acid, while the Solvent B was ACN with 0.1% (v/v) formic acid. The LC system was set at the 0.30 mL/min with a gradient of 5-100% solvent B in solvent A over 8 min. MassHunter Quantitative Analysis Version software was used for ion chromatogram extraction and Maximum Entropy deconvolution.
# GAPDH and TBA1B = GAPDH and TBA1B labeling by Western Blot; type: biochemical
# Excerpt: (§1) From the ABPP studies with the Trp-CLiC method, 190 unique hyperreactive tryptophan sites from 151 probe-modified proteins were identified in more than two replicates. These Ox-W18-labeled tryptophan sites were found in many classes of proteins, including enzymes, chaperones, and nucleoproteins, as well as many structural proteins. Meanwhile, we noticed that many targets are classified as non-druggable and highly enriched in diverse phase-separated compartments, such as the nucleolus, nuclear body, paraspeckle and stress granule. […] For example, the hyperreactive W196 site identified on GAPDH, W346 site found on TBA1B, and W324 and W148 on LDHA enzyme are the most surface-exposed tryptophan residues in these proteins, whereas other tryptophan residues were not probed. […] GAPDH and TBA1B were chosen as representative examples to showcase the Trp-CLiC method for ABPP. […] We then sought to further investigate the character of probed solvent-accessible tryptophan sites by performing motif analysis. […] Lysine is hydrophilic and has the capacity to form cation-π interactions with the indole tryptophan ring, providing a potential pathway for stabilizing hydrophobic tryptophan residues being surface-exposed (38, 39).
# lysozyme = lysozyme (Gallus gallus, UniProt P00698); test: Lysozyme labelling with Ox-W18 (A260/A280 ratio, LC-MS/MS); settings: native folded conditions
# Excerpt: Based on spectroscopic analyses, we used the ratio of absorption signatures at 260 and 280 nm (A260/A280 ratio) to track tryptophan bioconjugation on lysozyme.
# We next evaluated how many and which tryptophan residues on lysozyme are prioritized for redox-based Trp-CLiC labeling under native folded conditions. […] We then moved on to identify which tryptophan sites are targeted and tested the hypothesis that the propensity of oxidative tryptophan modification reactivity might correlate with solvent accessibility. To this end, we used the Discovery Studio platform to calculate the relative solvent accessibility of the six tryptophan residues on lysozyme.
# Proteins were dissolved in Tris (50 mM, pH 8.0) buffer. Ox-W18 (100 mM stock in DMF) was added to 30 μL protein solution (50 μM) and the final concentration was 300 μM. The reactions were performed for 10 min at room temperature and then quenched by addition of excess Ac-Met-OMe solution. For protein labelling under denaturing condition, the protein solution was treated with 0.5% SDS and then boiled for 5 min at 95° C. before Ox-W18 addition. For competition assay, free Ac-Trp-OMe (2 mM) was added beforehand. […]
# as §2
# HEK 293T cell lysates = test: Activity-based protein profiling (ABPP) of hyperreactive tryptophan sites; type: biochemical, human; settings: identified in more than two replicates
# Excerpt: We next moved on to apply Trp-CLiC at the whole proteome level, specifically to identify new functional tryptophan sites in cells using activity-based protein profiling (ABPP).
# as §1, with “39). […]” for “39).”
# [4] = Ac-Trp-OMe, PBS/organic solvent mixture, 10 min, room temperature
# Sequence of GLP-1 (P01275 92-128 limits assumed): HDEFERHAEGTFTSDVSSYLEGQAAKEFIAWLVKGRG
# Sequence of lysozyme (P00698 19-147): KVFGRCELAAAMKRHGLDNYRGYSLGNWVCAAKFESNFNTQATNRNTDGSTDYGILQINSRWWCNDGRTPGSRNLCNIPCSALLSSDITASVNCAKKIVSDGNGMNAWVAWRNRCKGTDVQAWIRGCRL
compound,measurement,setting,value
CC(C)C[C@@H](C=O)NC(=O)[C@H](CC(C)C)NC(=O)[C@H](CC(C)C)NC(=O)OCc1ccccc1 [MG-132] (Cbz-Leu-Leu-Leu-aldehyde),desthiobiotin staining signal vs vehicle control,HeLa cells,more desthiobiotin staining signal
CS(=O)(=O)N1OC1c1ccccc1 (stereo not drawn) [Ox-W1],Tryptophan conversion,[1]; [4],~50%
same,indole cycloadduct yield,[1]; [4],28%
same,product of reaction with methionine,[2],traceless methionine sulfoxide adduct
COc1ccc(S(=O)(=O)N2OC2c2ccc([N+](=O)[O-])cc2[N+](=O)[O-])cc1 (stereo not drawn) [Ox-W10],selectivity for the indole cycloadduct product,[1],~90%
same,measured reaction rate (second-order rate constant),[3],24.9 ± 1.3 M⁻¹ s⁻¹
C#Cc1ccc(S(=O)(=O)N2OC2c2ccccc2[N+](=O)[O-])cc1 (stereo not drawn) [Ox-W17],selectivity for the indole cycloadduct product,[1],~90%
same,measured reaction rate (second-order rate constant),[3],24.9 ± 1.3 M⁻¹ s⁻¹
C#CCN(C)S(=O)(=O)N1OC1c1ccccc1[N+](=O)[O-] (stereo not drawn) [Ox-W18],modification of the partially buried tryptophan site,IL8,modified only after treatment with a denaturant
same,conversion,GLP-1,quantitative
same,cycloadduct yield,GLP-1,74%
same,GAPDH and TBA1B labeling with increased probe addition,GAPDH and TBA1B,more GAPDH and TBA1B labeling
same,A260/A280 ratio,lysozyme,0.80
same,probe-modified proteins identified,HEK 293T cell lysates,151
same,unique hyperreactive tryptophan sites identified,HEK 293T cell lysates,190
C#CCN(C)S(=O)(=O)N1OC1c1ccc([N+](=O)[O-])cc1[N+](=O)[O-] (stereo not drawn) [Ox-W19],selectivity for the indole cycloadduct product,[1],~90%
same,measured reaction rate (second-order rate constant),[3],24.9 ± 1.3 M⁻¹ s⁻¹
Tunicamycin,desthiobiotin staining signal vs vehicle control,HeLa cells,more desthiobiotin staining signal
